For this experiment, the system named is differentiated P19 neurons. Put plainly: Drug screening using differentiated P19 cell assay (neuroprotection against glutamate/glycine). It is filed as cell-based, murine. To be noted: for IC50: dose response 0.005-3 μM, 3 mM glutamate + 1 mM glycine, >1 = no maximum within highest dose (3 μM); for % neuroprotection (cell survival relative to control): screened at 1 micromolar, percentage of control cells surviving after 24 hours. Here is the method:
Commercially available chemical libraries (BioFocus PLC, UK) were screened using the methods described herein. The stock concentration of the compounds was about 400 μM in DMSO. The concentration of compounds used in the primary screen was 1 μM. […] Columns 4-11 received compounds at the following final concentrations (μM): 3, 1.2, 0.48, 0.192, 0.077, 0.031, 0.012 and 0.005. Each row contained a different compound for confirmation. Only rows B-G received compounds, and rows A and H remained untreated. Data are expressed as % neuroprotection=((compound-glutamate average)/(U0126-glutamate average)×100).
Only the 2-pyridinamines are the subject of this invention, although limited data for 4-pyrimidinamines are presented as well. “% Inh” indicates the percentage of control cells surviving after 24 hours, and represents the neuroprotective effect of the compounds screened at 1 micromolar concentration. IC50 relate to data from dose response experiments. […] ND refers to compounds not tested in dose-response experiments. […]

What is called IC50 is the concentration needed to halve the response being measured. On to `COc1cc(Nc2cccc(-c3cc(C(F)(F)F)cc(C(F)(F)F)c3)n2)cc(OC)c1OC` [Cmpd 137], for which the IC50 was found to be 590 nM and the “% neuroprotection (cell survival relative to control)” value was 82%.

Turning to `COc1cc(Nc2cccc(-c3ccccc3Oc3ccccc3)n2)cc(OC)c1OC` [Cmpd 138, 2-pyridinamine, 6-(2-phenoxyphenyl)-N-(3,4,5-trimethoxyphenyl)-], the “% neuroprotection (cell survival relative to control)” value came out at 90%. Besides, the IC50 (Mus musculus, Neuron) is 230 nM.

On to `Cc1ccc(-c2ccc(Nc3ccc4c(c3)OCCO4)nc2)cc1C` [Cmpd 85], for which the IC50 was over 1000 nM and the “% neuroprotection (cell survival relative to control)” value is given as 86%.

As for `CCCCCOc1ccc(Nc2ccc(-c3ccc(N(C)C)cc3)cn2)cc1` [Cmpd 7, 2-pyridinamine, 5-[4-(dimethylamino)phenyl]-N-[4-(pentyloxy)phenyl]-], the “% neuroprotection (cell survival relative to control)” value worked out at 88%. The IC50 (Mus musculus, Neuron) was 240 nM.

For the compound `c1ccc2sc(-c3ccc(Nc4ccc(N5CCOCC5)cc4)nc3)cc2c1` [Cmpd 22, 2-pyridinamine, 5-benzo[b]thien-2-yl-N-[4-(4-morpholinyl)phenyl]-], the “% neuroprotection (cell survival relative to control)” value was 98%. Besides, the IC50 (Mus musculus, Neuron) is 90 nM.

Take `COc1ccc(Nc2ccc(C=Cc3ccccc3)cn2)c(C)c1` [Cmpd 90]: the “% neuroprotection (cell survival relative to control)” value is on record as 73%.

With `COc1cc(Nc2cccc(-c3ccc(O)cc3)n2)cc(OC)c1OC` [Cmpd 117], the “% neuroprotection (cell survival relative to control)” value is reported as 78%.

As to `C(=C\c1ccc(Nc2ccc3c(c2)OCCO3)nc1)/c1ccccc1` [Cmpd 88, 2-pyridinamine, N-(2,3-dihydro-1,4-benzodioxin-6-yl)-5-[(E)-2-phenylethenyl]-], the “% neuroprotection (cell survival relative to control)” value was found to be 85%. The IC50 (Mus musculus, Neuron) turned out to be 230 nM.

For `COc1cc(Nc2cccc(-c3cc(OC)c(OC)c(OC)c3)n2)cc(OC)c1OC` [Cmpd 112], the IC50 was 900 nM and the “% neuroprotection (cell survival relative to control)” value is reported as 90%.

Regarding `Clc1cccc(-c2ccc(Nc3ccc(N4CCOCC4)cc3)nc2)c1Cl` [Cmpd 26], the IC50 was over 1000 nM and the “% neuroprotection (cell survival relative to control)” value was 107%.

As to `COc1ccccc1-c1ccc(Nc2ccc3c(c2)OCCO3)nc1` [Cmpd 11], the IC50 is 870 nM and the “% neuroprotection (cell survival relative to control)” value is given as 83%.

Take `CCOc1cccc(-c2cccc(Nc3cc(OC)c(OC)c(OC)c3)n2)c1` [Cmpd 114, 2-pyridinamine, 6-(3-ethoxyphenyl)-N-(3,4,5-trimethoxyphenyl)-]: the “% neuroprotection (cell survival relative to control)” value turned out to be 96%. The IC50 (Mus musculus, Neuron) was 140 nM.

With `c1cc2c(cc1Nc1ccc(-c3ccc(N4CCOCC4)cc3)cn1)OCCO2` [Cmpd 5], the IC50 turned out to be 284 nM and the “% neuroprotection (cell survival relative to control)” value worked out at 80%.

As to `COc1ccc(Nc2cccc(-c3ccc4ccccc4c3)n2)cc1` [Cmpd 97], the “% neuroprotection (cell survival relative to control)” value is 71%.

As to `COc1cc(Nc2cccc(-c3cc4ccccc4o3)n2)cc(OC)c1OC` [Cmpd 110], the IC50 was 140 nM and the “% neuroprotection (cell survival relative to control)” value was determined as 91%.

In the case of `CCCCCOc1ccc(Nc2ccc(-c3ccccc3OC)cn2)cc1` [Cmpd 14, 2-pyridinamine, 5-(2-methoxyphenyl)-N-[4-(pentyloxy)phenyl]-], the “% neuroprotection (cell survival relative to control)” value worked out at 90%. The IC50 (Mus musculus, Neuron) came to 220 nM.

On to `COc1cc(Nc2cccc(-c3ccc(Cl)cc3)n2)cc(OC)c1OC` [Cmpd 141], for which the “% neuroprotection (cell survival relative to control)” value was 76%.

In the case of `CCCCCOc1ccc(Nc2ccc(-c3ccc(CCC(=O)O)cc3)cn2)cc1` [Cmpd 10, benzenepropanoic acid, 4-[6-[[4-(pentyloxy)phenyl]amino]-3-pyridinyl]-], the “% neuroprotection (cell survival relative to control)” value stood at 105%. Under “Mus musculus, Neuron”, the IC50 was 230 nM.

Consider `COc1ccc(Nc2ccc(-c3ccccc3OC)cn2)cc1` [Cmpd 35], for which the IC50 is over 1000 nM and the “% neuroprotection (cell survival relative to control)” value is 82%.

With `CCn1c2ccccc2c2cc(Nc3cccc(-c4ccc5c(c4)OCO5)n3)ccc21` [Cmpd 139], the “% neuroprotection (cell survival relative to control)” value is recorded as 72%.

Consider `COc1ccc(Nc2cccc(-c3ccc(N(C)C)cc3)n2)cc1` [Cmpd 98], for which the “% neuroprotection (cell survival relative to control)” value turned out to be 71%.

Consider `COc1cc(Nc2cccc(/C=C/c3ccccc3)n2)cc(OC)c1OC` [Cmpd 144, 2-pyridinamine, 6-[(E)-2-phenylethenyl]-N-(3,4,5-trimethoxyphenyl)-], for which the “% neuroprotection (cell survival relative to control)” value came to 110%. Besides, under “Mus musculus, Neuron”, the IC50 amounted to 30 nM.

Regarding `COc1ccc(Nc2cccc(-c3ccc(OC)c(OC)c3)n2)cc1` [Cmpd 130], the IC50 is 850 nM and the “% neuroprotection (cell survival relative to control)” value stood at 96%.

For `c1ccc(Oc2ccc(Nc3cccc(-c4ccc5c(c4)OCO5)n3)cc2)cc1` [Cmpd 140], the “% neuroprotection (cell survival relative to control)” value came to 79%.

Turning to `COc1ccc(Nc2ccc(-c3ccc(N4CCOCC4)cc3)cn2)cc1` [Cmpd 83], the “% neuroprotection (cell survival relative to control)” value came to 71%.

For `COc1ccc(Nc2cccc(-c3ccccc3)n2)cc1` [Cmpd 123], the “% neuroprotection (cell survival relative to control)” value is 90%. In addition, under “Mus musculus, Neuron”, the IC50 was 650 nM.

As to `CC(C)(C)OC(=O)N1CCN(c2ccc(-c3ccc(Nc4ccc5c(c4)OCCO5)nc3)cc2)CC1` [Cmpd 69], the “% neuroprotection (cell survival relative to control)” value is given as 99%.

In the case of `Oc1ccc(-c2ccc(Nc3ccc4c(c3)OCCO4)nc2)cc1` [Cmpd 70], the “% neuroprotection (cell survival relative to control)” value is on record as 93%.

In the case of `COc1ccc(Nc2cccc(-c3ccc(CNC(=O)OC(C)(C)C)cc3)n2)cc1` [Cmpd 102], the “% neuroprotection (cell survival relative to control)” value was determined as 103%. For the same compound, for the setting “Mus musculus, Neuron”, the IC50 amounted to 940 nM.

For `COc1ccc(-c2cccc(Nc3cc(OC)c(OC)c(OC)c3)n2)cc1OC` [Cmpd 124, 2-pyridinamine, 6-(3,4-dimethoxyphenyl)-N-(3,4,5-trimethoxyphenyl)-], the “% neuroprotection (cell survival relative to control)” value worked out at 86%. Besides, the IC50 (Mus musculus, Neuron) amounted to 230 nM.

With `Oc1ccc(-c2ccc(Nc3ccc(N4CCOCC4)cc3)nc2)cc1` [Cmpd 1], the IC50 stood at 1080 nM and the “% neuroprotection (cell survival relative to control)” value is on record as 84%.

With `Cc1ccc(-c2ccc(Nc3cccc(N(C)C)c3)nc2)cc1C` [Cmpd 87], the IC50 is over 1000 nM and the “% neuroprotection (cell survival relative to control)” value is recorded as 84%.

Take `COc1cc(Nc2cccc(-c3ccc(N4CCOCC4)cc3)n2)cc(OC)c1OC` [Cmpd 106]: the IC50 turned out to be 660 nM and the “% neuroprotection (cell survival relative to control)” value was 84%.

`CCn1c2ccccc2c2cc(Nc3cccc(-c4cncc(OC)c4)n3)ccc21` [Cmpd 134]: the IC50 is 1590 nM and the “% neuroprotection (cell survival relative to control)” value worked out at 92%.

In the case of `COc1cc(Nc2ccc(-c3ccc(C)c(C)c3)cn2)cc(OC)c1OC` [Cmpd 84], the IC50 was 490 nM and the “% neuroprotection (cell survival relative to control)” value amounted to 85%.

As to `Fc1ccc(-c2ccc(Nc3ccc(N4CCOCC4)cc3)nc2)cc1Cl` [Cmpd 31], the IC50 was over 1000 nM and the “% neuroprotection (cell survival relative to control)” value was found to be 83%.

Take `COc1cc(C)c(Nc2cccc(-c3ccc(C)c(C)c3)n2)cc1OC` [Cmpd 127, 2-pyridinamine, N-(4,5-dimethoxy-2-methylphenyl)-6-(3,4-dimethylphenyl)]: the “% neuroprotection (cell survival relative to control)” value was 86%. Moreover, the IC50 (Mus musculus, Neuron) came to 190 nM.

Turning to `COc1cc(Nc2cccc(-c3ccccc3)n2)cc(OC)c1OC` [Cmpd 122, 2-pyridinamine, 6-phenyl-N-(3,4,5-trimethoxyphenyl)-], the “% neuroprotection (cell survival relative to control)” value was determined as 84%. Moreover, the IC50 (Mus musculus, Neuron) amounted to 7 nM.

On to `CN(C)c1cccc(-c2ccc(Nc3ccc4c(c3)OCCO4)nc2)c1` [Cmpd 76], for which the “% neuroprotection (cell survival relative to control)” value is listed as 95%.

On to `COc1ccc(Nc2cccc(-c3ccc(C)c(C)c3)n2)cc1` [Cmpd 128], for which the IC50 came out at 1540 nM and the “% neuroprotection (cell survival relative to control)” value worked out at 84%.

As for `FC(F)(F)Oc1cccc(-c2ccc(Nc3ccc(N4CCOCC4)cc3)nc2)c1` [Cmpd 33], the IC50 was over 1000 nM and the “% neuroprotection (cell survival relative to control)” value came to 89%.

`c1ccc2cc(-c3ccc(Nc4ccc5c(c4)OCCO5)nc3)ccc2c1` [Cmpd 81]: the IC50 worked out at 470 nM and the “% neuroprotection (cell survival relative to control)” value was 107%.

For the compound `COc1ncc(-c2cccc(Nc3cc(OC)c(OC)c(OC)c3)n2)c(OC)n1` [Cmpd 107], the “% neuroprotection (cell survival relative to control)” value turned out to be 71%.

Regarding `COc1cc(Nc2cccc(-c3ccc(F)c(Cl)c3)n2)cc(OC)c1OC` [Cmpd 142], the “% neuroprotection (cell survival relative to control)” value is given as 94%.

For `c1ccc2cc(-c3ccc(Nc4ccc(N5CCOCC5)cc4)nc3)ccc2c1` [Cmpd 25, 2-pyridinamine, N-[4-(4-morpholinyl)phenyl]-5-(2-naphthyl)-], the “% neuroprotection (cell survival relative to control)” value is given as 100%. Besides, the IC50 (Mus musculus, Neuron) is 84 nM.

The values are drawn from patent publication US20020198219A1, “2-pyridinamine compositions and related methods” (priority 2000, published 2002).
